Experimental data from patent publication US20180179524A1, “COMPOSITIONS AND METHODS FOR INHIBITING CELL PROLIFERATION” (President and Fellows of Harvard College, priority 2015, published 2018).

System: luciferase-based reporter constructs in S2R+ cells
Experiment: Luciferase-based mutation reporter assay (sgRNA mutation efficiency)
Assay type: cell-based, Drosophila
Conditions: sgRNAs with no mismatches targeting luciferase-based reporter in S2R+ cells; mutation rate = 1/Firefly luciferase normalized to Renilla
Experimental: The luciferase reporter vector was constructed by PCR amplifying the metallothionein promoter from pMK33 and luciferase gene from pGL3 (Table 1) and combining these with annealed oligos containing a gRNA target site (Table 1 and Table 2) and a custom made cloning vector using Golden Gate assembly.
Luciferase assays were performed by transfecting S2R+ cells with the relevant pl018 plasmid, luciferase reporter and pRL-TK (Promega) (to allow normalization of transfection efficiencies between samples) in 96 well plates using Effectene Transfection Reagent (Qiagen) according to the manufacturer's recommendations. Twenty-four hours after transfection, CuSO4 was added to the cell media at a final concentration of 140 μM and cells were incubated for a further 16 hours.
Firefly and Renilla luciferase readings were taken using the Dual-Glo Luciferase Assay System (Promega) according to manufacturer's instructions and a SpectraMax Paradigm Multi-Mode Microplate Detection Platform (Molecular Devices).
Because the rate of mutations varies widely between different sgRNAs (25-27), whether efficiency could be predicted based on the sgRNA sequence was tested. 75 additional sgRNAs were generated, each targeting luciferase-based reporter constructs with no mismatches and tested mutation efficiency for each. Using this panel of sgRNAs and associated efficiencies, the presence or absence of a correlation between GC content and mutation rate was examined. […] Next, whether a more general sequence-based approach was tested for its ability to improve efficiency prediction. The nucleotide content of all 75 sgRNAs was examined, considering each position separately and generated a probability matrix linking nucleotide content with mutation rate (FIG. 1, panel B). This was then used to generate predicted efficiency scores based on sgRNA sequence. […] Note that sgRNAs targeting close to the 3′ end of genes or with apparent viability effects were not included in this analysis. Finally, predicted scores were generated for all sgRNA target sites in the Drosophila genome and annotated.

**Q.** Which Mean efficiency does the source give for “CAACCAACAGGTCCGGCCCC: sgRNA targeting a luciferase-based reporter construct, no mismatches (chemistry not given here)” here?
**A.** The Mean efficiency was 0.3833.

**Q.** How did the Mean efficiency turn out when “CAAGCAAGTCCGGTCGGTTG: sgRNA targeting a luciferase-based reporter construct, no mismatches (chemistry not given here)” was run?
**A.** Its Mean efficiency is 0.3531.

**Q.** For “CAGCCTCTCCCTGCGGATGC: sgRNA targeting a luciferase-based reporter construct, no mismatches (chemistry not given here)”, which Mean efficiency is on record?
**A.** The Mean efficiency was 0.2509.

**Q.** Which Mean efficiency does the source give for “CAGGCATTGTGACGACGCGC: sgRNA targeting a luciferase-based reporter construct, no mismatches (chemistry not given here)” here?
**A.** Its Mean efficiency is 0.1744.

**Q.** With “CCACCGCGATATATGGGCGA: sgRNA targeting a luciferase-based reporter construct, no mismatches (chemistry not given here)” as the substance, how does the Mean efficiency read?
**A.** The Mean efficiency was 0.5711.

**Q.** With “CCAGTAACGTCAAAGCTAGG: sgRNA targeting a luciferase-based reporter construct, no mismatches (chemistry not given here)” as the substance, how does the Mean efficiency read?
**A.** Its Mean efficiency is 0.1068.

**Q.** For “CCGCCGTGTGCTGCGAATAC: sgRNA targeting a luciferase-based reporter construct, no mismatches (chemistry not given here)”, which Mean efficiency is on record?
**A.** The Mean efficiency was 0.1661.

**Q.** “CCGCGCCGAGGACTACCGCC: sgRNA targeting a luciferase-based reporter construct, no mismatches (chemistry not given here)” was tested. Which Mean efficiency did it give?
**A.** Its Mean efficiency is 0.4568.

**Q.** With “CCGTCGAAGAACCGCGCAAT: sgRNA targeting a luciferase-based reporter construct, no mismatches (chemistry not given here)” as the substance, how does the Mean efficiency read?
**A.** Its Mean efficiency is 1.029.

**Q.** Which Mean efficiency does the source give for “CCTGGATGATACGCTGGCGC: sgRNA targeting a luciferase-based reporter construct, no mismatches (chemistry not given here)” here?
**A.** The Mean efficiency was 0.1807.

**Q.** “CCTTCGCGAGCACCCGGAAA: sgRNA targeting a luciferase-based reporter construct, no mismatches (chemistry not given here)” was tested. Which Mean efficiency did it give?
**A.** The Mean efficiency was 0.3812.

**Q.** For “CGAATTACTACGTAGAGCGG: sgRNA targeting a luciferase-based reporter construct, no mismatches (chemistry not given here)”, which Mean efficiency is on record?
**A.** Its Mean efficiency is 0.1117.

**Q.** With “CGACGTTCCTGGCTCAATTG: sgRNA targeting a luciferase-based reporter construct, no mismatches (chemistry not given here)” as the substance, how does the Mean efficiency read?
**A.** Its Mean efficiency is 0.9067.

**Q.** “CGCCGGCACCGCGTCCCTAT: sgRNA targeting a luciferase-based reporter construct, no mismatches (chemistry not given here)” was tested. Which Mean efficiency did it give?
**A.** Its Mean efficiency is 0.2542.

**Q.** “CGTCGTTCTCGCCACCGCGC: sgRNA targeting a luciferase-based reporter construct, no mismatches (chemistry not given here)” was tested. Which Mean efficiency did it give?
**A.** Its Mean efficiency is 0.1461.

**Q.** With “CTCACAGACGGCGCCCGGCG: sgRNA targeting a luciferase-based reporter construct, no mismatches (chemistry not given here)” as the substance, how does the Mean efficiency read?
**A.** The Mean efficiency was 0.4741.

**Q.** “CTGCCGTTCTTCAGAAATAT: sgRNA targeting a luciferase-based reporter construct, no mismatches (chemistry not given here)” was tested. Which Mean efficiency did it give?
**A.** The Mean efficiency was 0.3101.

**Q.** For “CTGGGCCGGCGTGTCCGTTC: sgRNA targeting a luciferase-based reporter construct, no mismatches (chemistry not given here)”, which Mean efficiency is on record?
**A.** The Mean efficiency was 0.4328.

**Q.** “CTTCCGACCCTTCGTTAGCC: sgRNA targeting a luciferase-based reporter construct, no mismatches (chemistry not given here)” was tested. Which Mean efficiency did it give?
**A.** The Mean efficiency was 0.1815.

**Q.** For “GAACTCCGACTAGATTATAT: sgRNA targeting a luciferase-based reporter construct, no mismatches (chemistry not given here)”, which Mean efficiency is on record?
**A.** The Mean efficiency was 0.4012.

**Q.** How did the Mean efficiency turn out when “GACAAAGGATACTCAAATCC: sgRNA targeting a luciferase-based reporter construct, no mismatches (chemistry not given here)” was run?
**A.** Its Mean efficiency is 0.05169.

**Q.** Which Mean efficiency does the source give for “GACCGGATTCGCTACAACCC: sgRNA targeting a luciferase-based reporter construct, no mismatches (chemistry not given here)” here?
**A.** Its Mean efficiency is 0.6963.

**Q.** Which Mean efficiency does the source give for “GCACCCTGCACGAATTATTT: sgRNA targeting a luciferase-based reporter construct, no mismatches (chemistry not given here)” here?
**A.** Its Mean efficiency is 0.2041.

**Q.** For “GCATGCCCACCTTATCGGCG: sgRNA targeting a luciferase-based reporter construct, no mismatches (chemistry not given here)”, which Mean efficiency is on record?
**A.** Its Mean efficiency is 0.1169.

**Q.** How did the Mean efficiency turn out when “GCCCAGGGGGAATCGGCCGC: sgRNA targeting a luciferase-based reporter construct, no mismatches (chemistry not given here)” was run?
**A.** The Mean efficiency was 0.4072.

**Q.** Which Mean efficiency does the source give for “GCCCGAAAGACACGTTTTTT: sgRNA targeting a luciferase-based reporter construct, no mismatches (chemistry not given here)” here?
**A.** Its Mean efficiency is 0.197.

**Q.** “GCGAGTTATCTATCCCCAGG: sgRNA targeting a luciferase-based reporter construct, no mismatches (chemistry not given here)” was tested. Which Mean efficiency did it give?
**A.** The Mean efficiency was 0.4749.

**Q.** “GCTCTGGACCATACGGGGAT: sgRNA targeting a luciferase-based reporter construct, no mismatches (chemistry not given here)” was tested. Which Mean efficiency did it give?
**A.** The Mean efficiency was 0.1746.

**Q.** For “GGAATAACCACGTCCCGCGT: sgRNA targeting a luciferase-based reporter construct, no mismatches (chemistry not given here)”, which Mean efficiency is on record?
**A.** Its Mean efficiency is 0.2894.

**Q.** “GGAGCGAGTTATCTATCCCC: sgRNA targeting a luciferase-based reporter construct, no mismatches (chemistry not given here)” was tested. Which Mean efficiency did it give?
**A.** Its Mean efficiency is 0.06181.

**Q.** How did the Mean efficiency turn out when “GGATGTTCCGGCACAACGCC: sgRNA targeting a luciferase-based reporter construct, no mismatches (chemistry not given here)” was run?
**A.** The Mean efficiency was 0.2753.

**Q.** For “GGCACCGGGTAGCCTTGCGC: sgRNA targeting a luciferase-based reporter construct, no mismatches (chemistry not given here)”, which Mean efficiency is on record?
**A.** The Mean efficiency was 0.3497.

**Q.** How did the Mean efficiency turn out when “GGGCTCCAGGCTGCGCGCAA: sgRNA targeting a luciferase-based reporter construct, no mismatches (chemistry not given here)” was run?
**A.** Its Mean efficiency is 0.2308.

**Q.** For “GGTTACCAACTCAGGACCCG: sgRNA targeting a luciferase-based reporter construct, no mismatches (chemistry not given here)”, which Mean efficiency is on record?
**A.** Its Mean efficiency is 0.4858.

**Q.** With “GGTTCACTATTGGGGCGATC: sgRNA targeting a luciferase-based reporter construct, no mismatches (chemistry not given here)” as the substance, how does the Mean efficiency read?
**A.** Its Mean efficiency is 0.1771.

**Q.** For “GTCGGAACCTGAGTCGTTTT: sgRNA targeting a luciferase-based reporter construct, no mismatches (chemistry not given here)”, which Mean efficiency is on record?
**A.** Its Mean efficiency is 0.5891.

**Q.** For “GTGCTGCGCCAACCCAAATA: sgRNA targeting a luciferase-based reporter construct, no mismatches (chemistry not given here)”, which Mean efficiency is on record?
**A.** The Mean efficiency was 0.0849.

**Q.** For “GTGGAATCTACTGTGGAATC: sgRNA targeting a luciferase-based reporter construct, no mismatches (chemistry not given here)”, which Mean efficiency is on record?
**A.** Its Mean efficiency is 0.2969.

**Q.** “GTGTCCAGGCTCGTCATGCC: sgRNA targeting a luciferase-based reporter construct, no mismatches (chemistry not given here)” was tested. Which Mean efficiency did it give?
**A.** The Mean efficiency was 0.8603.

**Q.** “TAAGACATACGTACGCCCAG: sgRNA targeting a luciferase-based reporter construct, no mismatches (chemistry not given here)” was tested. Which Mean efficiency did it give?
**A.** The Mean efficiency was 0.1814.

**Q.** For “TCCTATTACTGCGTGCAGCC: sgRNA targeting a luciferase-based reporter construct, no mismatches (chemistry not given here)”, which Mean efficiency is on record?
**A.** The Mean efficiency was 1.342.

**Q.** For “TCGAGGATGGGACGCTTATC: sgRNA targeting a luciferase-based reporter construct, no mismatches (chemistry not given here)”, which Mean efficiency is on record?
**A.** The Mean efficiency was 0.5053.

**Q.** Which Mean efficiency does the source give for “TCGATGACGCCCGGGTTAAC: sgRNA targeting a luciferase-based reporter construct, no mismatches (chemistry not given here)” here?
**A.** Its Mean efficiency is 0.26.
